Series [1] is described as follows: Two weak acid combinations with lidocaine citrate: pH, precipitation and stability at 4° C. for 3 months. As to conditions: for Observation: appearance of solution; for Time to Lidocaine Citrate Precipitation: kept at 4° C. for 3 months; for pH: lidocaine citrate solution (25 wt. % ethanol, 15 wt. % glycerin, 2.5 wt. % propylene glycol) with 2 wt. % acidifying agent; for colour of solution after change from clear: ambient conditions.
Method: The pH was then measured, and stability was tested by keeping the resulting solutions at 4° C. for 3 months.

For series [2] the following is noted: has been observed; in aqueous solutions; cited from earlier work.
For series [3] the following is noted: cited from earlier work.
The conditions of series [4]: 5.0 wt. % lidocaine free base, 3.6 wt. % citric acid, 15 wt. % glycerin, 25 wt. % ethanol, water; pH adjusted between 4.5 to 3.5 with excess citric acid at 25° C.
Series [5] in a line: Crystallization inhibitors and free base lidocaine crystallization in low pH solutions. To be noted: 5.0 wt. % lidocaine free base, Example 1 composition; 0.5, 1.0, 2.0 wt. % Kollidon VA 64, PVP K-90, PVP K-25 or PVP K-30; pH=3.5 and pH=4 by excess citric acid; 24 samples. In kind it is physicochemical.
For series [6] the following is noted: 5 wt. % lidocaine free base in water with 24 wt. % isopropyl alcohol, 54 wt. % ethanol, or 10 wt. % isopropyl alcohol and 20 wt. % ethanol; pH 4.0 and 3.5 by excess citric acid.
The mark [7] stands for this setting: 2% acidifying agent, pH range of 4.2 to 3.3.

The values below come from patent US20250152528A1, “RAPID RELIEF SPRAY” (HALEON US HOLDINGS LLC, priority 2022, published 2025).

Counter-ions that a name gives are not always drawn. Some results are limits rather than exact numbers.

For `CC(=O)O` [Acetic Acid], in series [1] (2 wt. % acidifying agent), the Observation result is on record as “Clear” and the “Time to Lidocaine Citrate Precipitation” value is reported as “Not observed”. Besides, the pH in series [1] was found to be 4.00.

Take `O=C(O)CCCCC(=O)O` [Adipic Acid]: in series [1] (5% acidifying agent), the “prevention of lidocaine citrate precipitation” value (shortened to “prevention”) was “did not prevent precipitation”, the Observation entry is reported as “Clear” and the “Time to Lidocaine Citrate Precipitation” value was determined as 2 weeks.

With `O=C1O[C@H]([C@@H](O)CO)C(O)=C1O` [Ascorbic acid], in series [1] (5% acidifying agent), the “prevention” value is recorded as “prevented lidocaine citrate precipitation”, the “colour of solution after change from clear” value is recorded as “orange”, the Observation result is “Oxidized” and the “Time to Lidocaine Citrate Precipitation” value is recorded as “Not observed”.

On to `O=C(O)/C=C/C(=O)O` [Fumaric acid], for which the “colour of solution after change from clear” value in series [1] (2% acidifying agent) is on record as “pale yellow solutions”. Further, the “prevention” value in series [1] (setting [7]) is recorded as “prevented lidocaine citrate precipitation”. In series [1] (2 wt. % acidifying agent), the Observation result was “Oxidized” and the “Time to Lidocaine Citrate Precipitation” value is “Not observed”. Further, the pH in series [1] came to 3.72.

In the case of `O=C(O)[C@H](O)[C@@H](O)C(=O)O` [L-Tartaric acid], in series [1] (2 wt. % acidifying agent), the Observation result is “Clear” and the “Time to Lidocaine Citrate Precipitation” value is “Not observed”. Also, the pH in series [1] was 3.71.

As for `CC(O)C(=O)O` (stereo not shown) [Lactic acid], in series [1] (2 wt. % acidifying agent), the Observation entry is given as “Clear” and the “Time to Lidocaine Citrate Precipitation” value was “Not observed”. Further, in series [1], the pH is on record as 4.05.

On to `O=C(O)/C=C\C(=O)O` [Maleic acid], for which the “colour of solution after change from clear” value in series [1] (2% acidifying agent) is on record as “pale yellow solutions”. Moreover, the “prevention” value in series [1] (setting [7]) is given as “prevented lidocaine citrate precipitation”. Moreover, in series [1] (2 wt. % acidifying agent), the Observation entry was “Oxidized” and the “Time to Lidocaine Citrate Precipitation” value is recorded as “Not observed”. For the same compound, the pH in series [1] is recorded as 3.32.

As for `O=C(O)CC(O)C(=O)O` (stereo not shown) [Malic Acid], the “amount at which irritant to a healthy skin” value in series [2] is given as not below 5 wt. %. Besides, in series [1] (2 wt. % acidifying agent), the Observation entry is given as “Clear” and the “Time to Lidocaine Citrate Precipitation” value is “Not observed”. In series [1], the pH was determined as 3.93.

In the case of `CNC[C@H](O)c1cccc(O)c1` [Phenylephrine], the “pH of solutions in which stable” value in series [3] (background statement) is given as not above 4.0.

Turning to `O=C(O)CCC(=O)O` [Succinic acid], in series [1] (2 wt. % acidifying agent), the Observation result is “Clear” and the “Time to Lidocaine Citrate Precipitation” value is “Not observed”. For the same compound, in series [1], the pH was 4.23.

On to `CCN(CC)CC(=O)Nc1c(C)cccc1C` [lidocaine free base, lidocaine], for which, in series [4], the “pH at which precipitation of lidocaine starts” value amounted to 4.0. Moreover, the “lidocaine crystallization with crystallization inhibitors” value in series [5] is on record as “thick layer of lidocaine crystallization”.

Take `CNC[C@H](O)c1cccc(O)c1` [phenylephrine HCl]: the “pH of solutions in which unstable” value in series [3] (approximately) is more than 4.

With lidocaine citrate, the “crystallization in aqueous alcohol cosolvents” value in series [6] is on record as “crystallized out of all samples as an opaque layer”. The “pH of lower pH solutions in which the salt crystallizes out” value (citrate salt generated in situ) is not above 4.5.

In the case of lidocaine malate, the “crystallization at low pH on storage” value (1:1 molar lidocaine free base and malic acid in water, excess malic acid to pH 3.6, several weeks at 4° C.) is listed as “No lidocaine malate crystallization was observed”.
